# Measured values: US20060116390A1, “Hepatitis c virus inhibitors” (priority 2003, published 2006)
# Like-named read-outs stand apart in the source and are kept apart here.
# System: HCV proteins in Rep5.1 cells (replicon cell line)
# Assay: Inhibitory activity of HCV: cell-based ELISA in replicon cell line Rep5.1 (decrease of HCV proteins)
# Set-up: species or system hepatitis C virus
# Details: Rep5.1 cells, 72 hours with drug
# Protocol: In order to, screen and evaluate the anti-HCV therapeutic agents in cell level, the following experiments are carried out using a replicon cell line, Rep5.1 [Lohmann, et al., Replication of subgenomic hepatitis C virus RNAs in a hepatoma cell line. Science 285:110-113 (1999)].
# Rep5.1 cells, the replicon cell line, are cultured in DMEM-10 containing 500 μg/ml of G418. The Rep5.1 cells in log phase are suspended by trypsin treatment, and 5000 cells are distributed to each well of a 96-well plate. After 4 hours when the cells are attached to the plate, the serially diluted drug is added to each well. After 48 hours, a part of the treated cells are observed by microscope, and MTT assay is carried out to evaluate the drug toxicity. The cytotoxicity is estimated in percentage based on the control containing no drug. After 72 hours, the remaining cells are fixed by methanol/acetone (50/50, v/v), and the decrease of HCV proteins is measured by using HCV antibody. The extent of decrease is estimated in percentage based on the control containing no drug, and the concentration of drug at which 50% of proteins is decreased is determined to be IC50. The compounds showing activity via this procedure are validated by Western blotting. In order to find out whether the decrease of HCV protein is related to the decrease of replicon RNA, Rep5.1 cell is treated with some selected drugs for 72 hours, RNA is purified, dot blotted, and hybridized with isotope labelled nucleic acid to determine the amounts of actin mRNA and replicon RNA, and finally the amount of RNA is compared.
# Plasma samples from 300 persons positive to the hepatitis C antibody test were screened by antibody diagnosis kit produced by LG life Sciences Ltd. (LG HCD3.0 TMB) to select 40 plasma samples having high titer. Replicon cell line and Huh-7 cell line each were cultured in a 96-well cell culture plate, fixed by methanol/acetone (1:1) mixture, and blocked by 3% skimmed milk. The 40 plasma sanples selected above were 100-fold diluted and aided thereto, and the bound antibodies were probed by anti-Human goat antibody (Sigma) to which Horse Radish Peroxidase is attached. As a result, 12 plasma samples having low specificity to Huh-7 cell line, but high specificity to replicon cell line were obtained. These plasma samples were used in the following cell-based ELISA.
# Rep5.1 cells were cultured in DMEM-10 containing 500 μg/ml of G418. The Rep5.1 cells in log phase were suspended by trypsin treatment, and 5000 cells were distributed to each well of a 96-well pate. After 4 hours for which the cells were attached to the plate, the serially diluted drug was added to each well. After 72 hours, the cells were fixed by methanol/acetone (50/50, v/v), and the decrease of HCV proteins was measured by using HCV antibody obtained as above. The extent of decrease was estimated in percentage based on the control containing no drug, and the concentration of drug at which 50% of proteins was decreased was determined to be IC50.
# [1] = Hepatitis C virus, 72 h, concentration at which 50% of HCV proteins was decreased, Table 2, read-out: IC50
# [2] = Hepatitis C virus, 72 h, decrease of HCV proteins measured by HCV antibody, Table 1, read-out: Level (IC50 values classified)
# [3] = concentration at which 50% of HCV proteins was decreased, Table 2, read-out: IC50
Structure (SMILES),IC50 [1],IC50 [2],IC50 [3]
"CC1=C(C(=O)OCc2ccc(-c3cnc(C)s3)s2)CNC(=S)N1 [Compound 221, 6-methyl-2-thioxo-1,2,3,4-tetrahydro-pyrimidine-5-carboxylic acid 5-(2-methyl-thiazol-5-yl)-thiophen-2-ylmethyl ester]",2500 nM,1000 to 10000 nM,–
"CC1=C(C(=O)OCc2cc(Cl)cc(Cl)c2)C(COS(C)(=O)=O)NC(=S)N1 (stereo not shown) [50″, 4-methanesulfonyloxymethyl-6-methyl-2-thioxo-1,2,3,4-tetrahydro-pyrimidine-5-carboxylic acid 3,5-dichloro-benzyl ester]",68000 nM,> 20000 nM,–
"C=CCN(CC)c1ccc(CCOC(=O)C2=C(C)NC(=S)NC2CO)cc1[N+](=O)[O-] (stereo not shown) [97″, 4-Hydroxymethyl-6-methyl-2-thioxo-1,2,3,4-tetrahydro-pyrimidine-5-carboxylic acid 2-[4-(allyl-ethyl-amino)-3-nitro-phenyl]-ethyl ester]",600 nM,< 1000 nM,–
"CSc1ccc(CCOC(=O)C2=C(C)NC(=S)NC2CO)cc1 (stereo not shown) [45″, 4-hydroxymethyl-6-methyl-2-thioxo-1,2,3,4-tetrahydro-pyrimidine-5-carboxylic acid 2-(4-methylsulfanyl-phenyl)-ethyl ester]",2700 nM,1000 to 10000 nM,–
"CC1=C(C(=O)OCCc2ccsc2)C2(CC2)NC(=S)N1 [13′, 7-methyl-5-thioxo-4,6-diaza-spiro[2.5]oct-7-ene-8-airboxylic acid 2-thiophen-3-yl-ethyl ester]",–,–,79000 nM
"CC1=C(C(=O)OCc2cc([N+](=O)[O-])ccc2Cl)C(CF)NC(=S)N1 (stereo not shown) [83′, 4-fluoromethyl-6-methyl-2-thioxo-1,2,3,4-tetrahydro-pyrimidine-5-carboxylic acid 2-chloro-5-nitro-benzyl ester]",5700 nM,1000 to 10000 nM,–
"CC1=C(C(=O)OC2CCc3c2csc3Cl)CNC(=S)N1 (stereo not shown) [21′, 6-methyl-2-thioxo-1,2,3,4-tetrahydro-pyrimidine-5-carboxylic acid 1-chloro-5,6-dihydro-4H-cyclopenta[c]thiophen-4-yl ester]",400 nM,< 1000 nM,–
"CC1=C(C(=O)OCc2cc(Cl)ccc2[N+](=O)[O-])C(CF)NC(=S)N1 (stereo not shown) [78′, 4-fluoromethyl-6-methyl-2-thioxo-1,2,3,4-tetrahydro-pyrimidine-5-carboxylic acid 5-chloro-2-nitro-benzyl ester]",11000 nM,10000 to 20000 nM,–
"CC1=C(C(=O)OCc2cc3c(cc2[N+](=O)[O-])OCO3)CNC(=S)N1 [Compound 140, 6-methyl-2-thioxo-1,2,3,4-tetrahydro-pyrimidine-5-carboxylic acid 6-nitro-benzo[1,3]dioxol-5-ylmethyl ester]",13000 nM,10000 to 20000 nM,–
"CC1=C(C(=O)OCCc2ccc([N+](=O)[O-])cc2)CNC(=S)N1 [Compound 119, 6-methyl-2-thioxo-1,2,3,4-tetrahydro-pyrimidine-5-carboxylic acid 2-(4-nitro-phenyl)-ethyl ester]",1300 nM,1000 to 10000 nM,–
"CC1=C(C(=O)OCCc2csc([N+](=O)[O-])c2)CNC(=S)N1 [26′, 6-methyl-2-thioxo-1,2,3,4-tetrahydro-pyrimidine-5-carboxylic acid 2-(5-nitro-thiophen-3-yl)-ethyl ester]",900 nM,< 1000 nM,–
"COCC#CCOC(=O)C1=C(C)NC(=S)NC1 [Compound 215, 6-methyl-2-thioxo-1,2,3,4-tetrahydro-pyrimidine-5-carboxylic acid 4-methoxy-but-2-inyl ester]",–,–,11000 nM
"CC1=C(C(=O)OCCc2cccc(Cl)c2)C(CF)NC(=S)N1 (stereo not shown) [70′, 4-fluoromethyl-6-methyl-2-thioxo-1,2,3,4-tetrahydro-pyrimidine-5-carboxylic acid 2-(3-chloro-phenyl)-ethyl ester]",1000 nM,< 1000 nM,–
"CC1=C(C(=O)OCCC[S+]([O-])c2nc3ccccc3o2)C(CF)NC(=S)N1 (stereo not shown) [49′, 4-fluoromethyl-6-methyl-2-thioxo-1,2,3,4-tetrahydro-pyrimidine-5-carboxylic acid 3-(benzoxazol-2-ylsulfinyl)-propyl ester]",8000 nM,1000 to 10000 nM,–
"CC1=C(C(=O)OCCc2cc(Cl)ccc2[N+](=O)[O-])C(CO)NC(=S)N1 (stereo not shown) [54″, 4-hydroxymethyl-6-methyl-2-thioxo-1,2,3,4-tetrahydro-pyrimidine-5-carboxylic acid 2-(5-chloro-2-nitro-phenyl)-ethyl ester]",8000 nM,1000 to 10000 nM,–
"CC1=C(C(=O)OCCc2ccc(OCc3ccccc3)cc2)C(CO)NC(=S)N1 (stereo not shown) [27″, 4-hydroxymethyl-6-methyl-2-thioxo-1,2,3,4-tetrahydro-pyrimidine-5-carboxylic acid 2-(4-benzyloxy-phenyl)-ethyl ester]",400 nM,< 1000 nM,–
"CC1=C(C(=O)OCc2c(C)cccc2C)CNC(=S)N1 [Compound 184, 6-methyl-2-thioxo-1,2,3,4-tetrahydro-pyrimidine-5-carboxylic acid 2,6-dimethyl-benzyl ester]",19000 nM,10000 to 20000 nM,–
"CCOc1ccccc1CCOC(=O)C1=C(C)NC(=S)NC1 [Compound 273, 6-methyl-2-thioxo-1,2,3,4-tetrahydro-pyrimidine-5-carboxylic acid 2-(2-ethoxy-phenyl)-ethyl ester]",800 nM,< 1000 nM,–
"CC1=C(C(=O)OC(C)CCc2cccs2)C(CF)NC(=S)N1 (stereo not shown) [74′, 4-fluoromethyl-6-methyl-2-thioxo-1,2,3,4-tetrahydro-pyrimidine-5-carboxylic acid 1-methyl-3-thiophen-2-yl-propyl ester]",7000 nM,1000 to 10000 nM,–
"CCc1ccc(CCOC(=O)C2=C(C)NC(=S)NC2CO)o1 (stereo not shown) [65″, 4-hydroxymethyl-6-methyl-2-thioxo-1,2,3,4-tetrahydro-pyrimidine-5-carboxylic acid 2-(5-ethyl-furan-2-yl)-ethyl ester]",1400 nM,1000 to 10000 nM,–
"CC1=C(C(=O)OCCc2c(F)c(F)cc(F)c2F)C(CF)NC(=S)N1 (stereo not shown) [65′, 4-fluoromethyl-6-methyl-2-thioxo-1,2,3,4-tetrahydro-pyrimidine-5-carboxylic acid 2-(2,3,5,6-tetrafluoro-phenyl)-ethyl ester]",1400 nM,1000 to 10000 nM,–
"CC1=C(C(=O)OCc2cccc(C)c2C)CNC(=S)N1 [Compound 156, 6-methyl-2-thioxo-1,2,3,4-tetrahydro-pyrimidine-5-carboxylic acid 2,3-dimethyl-benzyl ester]",500 nM,< 1000 nM,–
"CSc1ccc(COC(=O)C2=C(C)NC(=S)NC2)s1 [Compound 217, 6-methyl-2-thioxo-1,2,3,4-tetrahydro-pyrimidine-5-carboxylic acid 5-methylsulfanyl-thiophen-2-ylmethyl ester]",7000 nM,1000 to 10000 nM,–
"CC1=C(C(=O)OCCc2sccc2C)CNC(=S)N1 [Compound 257, 6-methyl-2-thioxo-1,2,3,4-tetrahydro-pyrimidine-5-carboxylic acid 2-(3-methyl-thiophen-2-yl)-ethyl ester]",< 400 nM,< 1000 nM,–
"CC1=C(C(=O)OCc2ccsc2)C(CF)NC(=S)N1 (stereo not shown) [Compound 253, 4-fluoromethyl-6-methyl-2-thioxo-1,2,3,4-tetrahydro-pyrimidine-5-carboxylic acid thiophen-3-ylmethyl ester]",13000 nM,10000 to 20000 nM,–
"CC1=C(C(=O)OCCc2cccc(OC(F)(F)F)c2)C(CO)NC(=S)N1 (stereo not shown) [75″, 4-hydroxymethyl-6-methyl-2-thioxo-1,2,3,4-tetrahydro-pyrimidine-5-carboxylic acid 2-(3-trifluoromethoxy-phenyl)-ethyl ester]",< 400 nM,< 1000 nM,–
"CCCN(c1ccc(CCOC(=O)C2=C(C)NC(=S)NC2CO)cc1[N+](=O)[O-])C1CC1 (stereo not shown) [95″, 4-Hydroxymethyl-6-methyl-2-thioxo-1,2,3,4-tetrahydro-pyrimidine-5-carboxylic acid 2-[4-(cyclopropyl-propyl-amino)-3-nitro-phenyl]-ethyl ester]",600 nM,< 1000 nM,–
